Measurements reported in US20200197320A1, “DRUG CARRIER AND DRUG DELIVERY SYSTEM THEREOF” (NATIONAL TSING HUA UNIVERSITY, priority 2018, published 2020).

Tested on: MDA-MB-231 human breast cancer cells
Assay: Material cytotoxicity by MTT assay
Conditions: under the condition of the present disclosure, including products after UV irradiation
Procedure: Then the drug delivery systems of Example 1 with different concentrations are tested for their cytotoxicity. […] The MDA-MB-231 human breast cancer cells are treated with 0.1, 1, 2, 5, 10 and 20 μg/mL of the drug delivery system of Example 1 for 6 hours, respectively, and then further incubated for another 24 hours. The cell viability is measured by the MTT assay.

For OCc1ccc2ccc3cccc4ccc1c2c34 [pyrenemethanol], the “harm to the cells” value was “not harmful”.
